Assay: xn = mol fraction of the nth substance listed
Settings: 101 kPa, Liquid, Vibrating tube method, x2 = 0.3333

NC(N)=O [urea] + C[N+](C)(C)CCO.[Cl-]
Settings	mass density [kg/m3]
293.15 K	1200.1
303.15 K	1194.5
313.15 K	1188.7
323.15 K	1183.1
333.15 K	1177.3
343.15 K	1170.8
353.15 K	1163.5
363.15 K	1155.4

From the NIST ThermoML archive (doi:10.1021/je5001796)
